Patent US7557573B2, “NMR-based methods for detecting ligands, where the ligand or target are hyperpolarized and the NMR-spectrum is compared with a reference spectrum of the ligand or target” (GE Healthcare AS, priority 2002, dated 2009)

Assays:
[1] = tested on: Urease; assay: Hyperpolarised 13C-urea NMR assay of enzymatic conversion and its inhibition; conditions: 10, 12 and 14 units urease, substrate concentration constant
Experimental: The frozen sample was hyperpolarised for one hour (DNP method). The sample was dissolved in a phosphate buffer (10 mM, pH 7.6, 100° C., 8.5 ml (active dissolution volume 3 ml)) and 500 μl were transferred to a 10 mm NMR tube containing 2.5 ml of a solution (same buffer as for urea) containing 12 units urease (0.1 mg). A series of 40 one-dimensional ^13C spectra were collected as one every 3 s, with a reduced flip angle (15°).
It is possible to calibrate the flip angle, and the relaxation rate for urea is known. […] Another way of calculating the reaction rate for the system is to vary the enzyme concentration while keeping the concentration of substrate constant.
The latter approach was used in a series of experiments that were performed as described above, only the concentration of urease was varied. Three experiments were performed with 10 units, 12 units and 14 units urease. The urease activity was plotted as a function of concentration. From this plot, the reaction rate constant was extracted directly. The NMR signal intensities of urea in the individual experiments have been used to calculate the enzymatic activity.

[2] = tested on: Src homology domain 2 from growth binding hormone; assay: Hyperpolarised (DNP) 13C-NMR binding assay, ligand free vs bound signals; conditions: target to ligand ratio 4:1, ligand 24 μM, 25° C., single scan
Experimental: The sample was placed in the polariser and hyperpolarised overnight (17 h) at 93.934 GHz and 100 mW (DNP method). The sample was brought into solution with phosphate buffer (pH 6.5, 100 mM, 60° C., 8.5 ml). The active dissolution volume was 3 ml with 90% recovery of substance, providing a final concentration of 5.7 μM. […] A liquid state NMR spectrum was acquired in one scan with a 90° pulse angle and acquisition time of 1 s. One NMR signal was obtained at 176.9 ppm from the ^13C-labeled ligand. The signal-to-noise ratio (SNR) of the spectrum was 50.
940 μl of the target solution (100 μM target, 5 mM DTT, 100 mM NaCl, 50 mM phosphate pH 6.5) was placed in 10 mm NMR tube with a bottom plug, reducing the active volume to […]. The tube was placed in a 9.4 T magnet with the temperature of the probe equilibrated to 25° C. A tube was connected to the bottom of the NMR tube to allow for injection of the ligand solution into the target solution.
The sample was placed in the polariser and hyperpolarised overnight (17 h) at 93.934 GHz and 100 mW (DNP method). […]
In this example, the target to ligand concentration ratio was 4:1. […] By varying the ligand to target concentration in the assay it would thus be possible to measure the binding affinity by quantifying the relative amounts of free and bound ligand visible in the spectra based on the knowledge of ligand/target concentrations used in the assay.

[3] = tested on: Src homology domain 2 from growth binding hormone; conditions: cited from earlier work

Compound | rate constant for the system (enzymatic conversion of urea) [1] [s⁻¹] | NMR signals of hyperpolarised ligand in mixture with target (free/bound) [2] | exchange regime of ligand with the target [3]
NC(N)=O [urea] | 0.0019 | – | –
(1-^13C)—Ac—EpYINQ—NH2 | – | two signals, one from the unbound ligand (176.94 ppm) and one from the bound ligand (176.2 ppm) | slow exchange with the target
